Read-outs that look alike come from different tables or passages of the source.
Columns and labels:
cholera toxin = assay type: in vivo, SPF male Wister rats; settings: secreta measured after 5 hours, rats
adenylate cyclase [1] = test: Inhibition of adenylate cyclase activity of intestinal epithetial cells; assay type: biochemical; settings: 200 nM, mice
Procedure: (§1) At 200 nM concentration, 13-propylberberin bisulfate inhibits about 50% of adenylate cyclase activity of intestinal epithetial cells or splenic lymphocytes in mice.

Solubility in water = assay type: physicochemical
adenylate cyclase [2] = test: Inhibition of adenylate cyclase activity of splenic lymphocytes; assay type: biochemical; settings: 200 nM, mice
Procedure: as §1

[3] = Stability: test compounds heated at 100° C. for 8 hours; assay type: physicochemical; settings: for stability (in words): compared with the conventionally-known halides; for Changes in appearance / Percent remainder (%): heated at 100° C. for 8 hours; for Percent remainder (%): 480 min
Procedure: Test compounds were heated at 100° C. for 8 hours. Changes in their appearance and their percent remainders were studied.

| SMILES | Solubility (Solubility in water) | stability (in words) [3] | Changes in appearance [3] | Percent remainder (%) [3] | further results |
| --- | --- | --- | --- | --- | --- |
| CCCc1c2[n+](cc3c(OC)c(OC)ccc13)CCc1cc3c(cc1-2)OCO3 [13-Propylberberine bisulfate, 13-propylberberine bisulfate] | soluble | extremely stable | no changes | 100.0% | Inhibition rate (%) (cholera toxin; 0.5 mg/kg injected into ligated tract with 20 μg cholera toxin): 13.0%; Inhibition rate (%) (cholera toxin; 2 mg/kg injected into ligated tract with 20 μg cholera toxin): 40.0%; inhibition of adenylate cyclase activity (adenylate cyclase [1]): about 50%; Solubility (Solubility in water; listed as 13-propylberberine sulfate): readily soluble in water; inhibition of adenylate cyclase activity (adenylate cyclase [2]): about 50% |
| CCCc1c2[n+](cc3c(OC)c(OC)ccc13)CCc1cc3c(cc1-2)OCO3 [13-Propylberberine bromide, 13-propylberberine bromide, reference compound] |  |  |  | 57.0% |  |
| CCCc1c2[n+](cc3c(OC)c(OC)ccc13)CCc1cc3c(cc1-2)OCO3 [13-Propylberberine chloride, reference compound] |  |  |  | 48.7% |  |
| CCCc1c2[n+](cc3c(OC)c(OC)ccc13)CCc1cc3c(cc1-2)OCO3 [13-Propylberberine iodide, reference compound] |  |  |  | 52.1% |  |
| CCCc1c2[n+](cc3c(OC)c(OC)ccc13)CCc1cc3c(cc1-2)OCO3 [13-Propylberberine primary phosphate, 13-propylberberine primary phosphate] | soluble | extremely stable | no changes | 99.8% | Solubility (Solubility in water; listed as 13-propylberberine phosphate): readily soluble in water |
| COc1ccc2cc3[n+](cc2c1OC)CCc1cc2c(cc1-3)OCO2 [Berberine chloride, reference compound] |  |  |  |  | Inhibition rate (%) (cholera toxin; 20 mg/kg injected into ligated tract with 20 μg cholera toxin): 8.0% |
